How the values were obtained:
type 2 diabetic patients [1] = test: 2-hour postprandial plasma glucose during standardized meal test (Example 1); format: in vivo, human; conditions: mITT; for 2-hour postprandial plasma glucose change from baseline to Week 24 (LOCF), LS Mean (SE): ANCOVA
Description: (§1) Criteria for Evaluation: • Efficacy: • Primary Endpoint: • Change in HbA1c from baseline to Week 24 • Secondary Endpoints: • Change in 2-hour PPG during meal test from baseline to Week 24 • Change in 2-hour plasma glucose excursion during meal test from baseline to Week 24 • Percentage of patients reaching HbA1c ≤6.5% or <7% at Week 24 • Change in 7-point SMPG profiles from baseline to Week 24 (each time point and mean daily value) • Change in body weight from baseline to Week 24, • Average daily Insulin glargine dose at Week 24 • Change in FPG from baseline to Week 24 • Percentage of patients requiring rescue therapy during the 24-week open-label treatment period • Change in 30-minute and 1-hour PPG and plasma glucose excursion during meal test from baseline to week 24 • Percentage of patients reaching HbA1c <7% at week 24 with no documented symptomatic hypoglycemia during the 24-week open label treatment period • Percentage of patients reaching HbA1c <7% with no weight gain at week 24
All continuous secondary efficacy endpoints were analyzed using a similar ANCOVA model with treatment, randomization strata of screening HbA1c (<8%, ≥8%), randomization strata of screening BMI (<30 kg/m^2, ≥30 kg/m^2) and country as fixed effects and using the baseline value of the corresponding parameter as a covariate. Insulin glargine dose was not included in the ANCOVA model as a covariate since patients enrolled were insulin-naïve.

type 2 diabetic patients [2] = test: HbA1c, 24-week phase 2 study on top of metformin (Example 1); format: in vivo, human; conditions: mITT population; for HbA1c change from baseline to Week 24 (LOCF), LS Mean (SE): ANCOVA
Protocol: A randomized, 24-week, open-label, 2-arm parallel-group, multicenter study comparing the efficacy and safety of insulin glargine/lixisenatide fixed ratio combination versus insulin glargine on top of metformin in type 2 diabetic patients.
Methodology: This was an open-label, 1:1 randomized, active-controlled, 2-arm, 24-week duration, parallel-group study comparing: • Insulin glargine/lixisenatide fixed ratio (2 U of insulin glargine for 1 μg of lixisenatide) combination • Insulin glargine alone
Diagnosis and criteria for inclusion: Patients with type 2 diabetes mellitus diagnosed for at least 1 year, treated with metformin at a stable dose of at least 1.5 g/day for at least 3 months prior to screening visit, and with HbA1c ≥7%, and ≤10% at screening.
In both groups, the initial daily dose of insulin glargine to be administered during the first week of treatment was 10 U. Afterwards, the dose was adjusted to achieve a target fasting SMPG in the range of 80 to 100 mg/dL (4.4 to 5.6 mmol/L). The dose was titrated weekly until the patient reached the target fasting SMPG. Thereafter, until the end of the study, the dose was adjusted as necessary to maintain a fasting SMPG between 80 and 100 mg/dL (4.4 and 5.6 mmol/1), inclusive. Doses could be reduced or modified at any time for hypoglycemia.
If a 60 U/30 μg dose was not sufficient to maintain FPG/HbA1c below predefined thresholds values, the dose was to be kept at 60 U and a rescue therapy was to be introduced.
as §1
The primary endpoint (change in HbA1c from baseline to week 24) was analyzed using an analysis of covariance (ANCOVA) model with treatment (insulin glargine/lixisenatide fixed ratio combination, insulin glargine alone), randomization strata of screening HbA1c (<8%, ≥8%), randomization strata of screening BMI (<30 kg/m^2, ≥30 kg/m^2) and country as fixed effects and using the baseline HbA1c value as a covariate.
The non-inferiority of insulin glargine/lixisenatide fixed ratio combination to insulin glargine alone was tested using a 1-sided statistical test with alpha level of 0.025 and a non-inferiority margin of 0.4% HbA1c. […] If non-inferiority is established, then a corresponding check of statistical superiority of insulin glargine/lixisenatide fixed ratio combination over insulin glargine alone would be performed for the primary endpoint.
All categorical secondary efficacy endpoints were analyzed by using Cochran-Mantel-Haenszel (CMH) method stratified by randomization strata of screening HbA1c (<8%, ≥8%) and BMI (<30 kg/m^2, ≥30 kg/m^2).

Gly(A21)-Arg(B31)-Arg(B32)-human insulin [Insulin Glargine]
2-hour postprandial plasma glucose at Week 24 (LOCF), Mean (SD) (type 2 diabetic patients [1]): 11.55 (2.83) mmol/L | 2-hour postprandial plasma glucose at Week 24 (LOCF), Median (type 2 diabetic patients [1]): 11.10 mmol/L | 2-hour postprandial plasma glucose change from baseline to Week 24 (LOCF), Mean (SD) (type 2 diabetic patients [1]): −3.96 (4.05) mmol/L | 2-hour postprandial plasma glucose change from baseline to Week 24 (LOCF), Median (type 2 diabetic patients [1]): -3.90 mmol/L | 2-hour postprandial plasma glucose change from baseline to Week 24 (LOCF), LS Mean (SE) (type 2 diabetic patients [1]): −4.33 (0.274) mmol/L | 2-hour postprandial plasma glucose change from baseline to Week 24 (LOCF), LS Mean (SE) (type 2 diabetic patients [1]; listed as insulin glargine): -4.33 mmol/L | HbA1c at Week 24 (LOCF), Mean (SD) (type 2 diabetic patients [2]): 6.47 (0.64) % | HbA1c at Week 24 (LOCF), Median (type 2 diabetic patients [2]): 6.40% | HbA1c change from baseline to Week 24 (LOCF), Mean (SD) (type 2 diabetic patients [2]): −1.54 (0.87) % | HbA1c change from baseline to Week 24 (LOCF), Median (type 2 diabetic patients [2]): −1.40% | Number (%) of patients with HbA1c <7.0% at Week 24 (type 2 diabetic patients [2]): 126 (78.3%) n (%) | Number (%) of patients with HbA1c ≤6.5% at Week 24 (type 2 diabetic patients [2]): 104 (64.6%) n (%) | Percentage of patients reaching HbA1c <7% at Week 24 (type 2 diabetic patients [2]): 78.3% | Percentage of patients reaching HbA1c ≤6.5% at Week 24 (type 2 diabetic patients [2]): 64.6% | HbA1c change from baseline to Week 24 (LOCF), LS Mean (SE) (type 2 diabetic patients [2]): −1.64 (0.057) % | HbA1c change from baseline to Week 24 (LOCF), LS Mean (SE) (type 2 diabetic patients [2]; listed as insulin glargine): −1.64%
